Experimental data taken from ChEMBL document CHEMBL1124164, “Synthesis and estrogen receptor selectivity of 1,1-bis(4-hydroxyphenyl)-2-(p-halophenyl)ethylenes” (J Med Chem, 1988).

Experiments:
Estrogen receptor [1] = target: T1, Estrogen receptor (Rattus norvegicus, UniProt P06211+Q62986); test: In vitro displacement of [3H]estradiol from estrogen receptor of rat uterine cystol; format: protein assay
Rattus norvegicus [2] = test: Distribution of radiolabeled compound in intestinal contents of rat 1 hr after ip administration of dose; fmol equivalents per 100 mg; format: ADME, organism-based; settings: in vivo
Rattus norvegicus [3] = test: Distribution of radiolabeled compound in intestinal contents of rat 1 hr after iv administration of dose; fmol equivalents per 100 mg; format: ADME, organism-based; settings: in vivo
Rattus norvegicus [4] = test: Distribution of radiolabeled compound in intestinal contents of rat 4 hr after ip administration of dose; fmol equivalents per 100 mg; format: ADME, organism-based; settings: in vivo
Rattus norvegicus [5] = test: Distribution of radiolabeled compound in liver of rat 1 hr after ip administration of dose and excess 8 microg of estradiol; fmol equivalents per 100 mg; format: ADME, organism-based; settings: in vivo
Rattus norvegicus [6] = test: Distribution of radiolabeled compound in liver of rat 1 hr after ip administration of dose; fmol equivalents per 100 mg; format: ADME, organism-based; settings: in vivo
Rattus norvegicus [7] = test: Distribution of radiolabeled compound in liver of rat 1 hr after iv administration of dose; fmol equivalents per 100 mg; format: ADME, organism-based; settings: in vivo
Rattus norvegicus [8] = test: Distribution of radiolabeled compound in liver of rat 4 hr after ip administration of dose; fmol equivalents per 100 mg; format: ADME, organism-based; settings: in vivo
Rattus norvegicus [9] = test: Distribution of radiolabeled compound in liver of rat 8 hr after ip administration of dose; fmol equivalents per 100 mg; format: ADME, organism-based; settings: in vivo
Rattus norvegicus [10] = test: Distribution of radiolabeled compound in plasma of rat 1 hr after ip administration of dose and excess 8 microg of estradiol; fmol equivalents per 100 mg; format: ADME, organism-based; settings: in vivo
Rattus norvegicus [11] = test: Distribution of radiolabeled compound in plasma of rat 1 hr after iv administration of dose; fmol equivalents per 100 mg; format: ADME, organism-based; settings: in vivo
Rattus norvegicus [12] = test: Distribution of radiolabeled compound in plasma of rat 4 hr after ip administration of dose; fmol equivalents per 100 mg; format: ADME, organism-based; settings: in vivo
Rattus norvegicus [13] = test: Distribution of radiolabeled compound in plasma of rat 8 hr after ip administration of dose; fmol equivalents per 100 mg; format: ADME, organism-based; settings: in vivo
Rattus norvegicus [14] = test: Distribution of radiolabeled compound in uterus of rat 1 hr after ip administration of dose; fmol equivalents per 100 mg; format: ADME, organism-based; settings: in vivo
Rattus norvegicus [15] = test: Distribution of radiolabeled compound in uterus of rat 1 hr after ip administration of dose and excess 8 microg of estradiol; fmol equivalents per 100 mg; format: ADME, organism-based; settings: in vivo
Rattus norvegicus [16] = test: Distribution of radiolabeled compound in uterus of rat 1 hr after iv administration of dose; fmol equivalents per 100 mg; format: ADME, organism-based; settings: in vivo
Rattus norvegicus [17] = test: Distribution of radiolabeled compound in uterus of rat 4 hr after ip administration of dose; fmol equivalents per 100 mg; format: ADME, organism-based; settings: in vivo
Rattus norvegicus [18] = test: Distribution of radiolabeled compound in uterus of rat 8 hr after ip administration of dose; fmol equivalents per 100 mg; format: ADME, organism-based; settings: in vivo
Rattus norvegicus [19] = test: Distribution of radiolabeled compound in plasma of rat 1 hr after ip administration of dose; format: ADME, organism-based; settings: in vivo
Rattus norvegicus [20] = test: Distribution of radiolabeled compound in intestinal contents of rat 1 hr after ip administration of dose and excess 8 microg of estradiol; fmol equivalents per 100 mg; format: ADME, organism-based; settings: in vivo
Rattus norvegicus [21] = species: Rattus norvegicus; test: Effect of Beta Glucuronidase on recovery of 3H associated with compound from rat intestinal contents; format: ADME, organism-based; settings: in vivo
Rattus norvegicus [22] = species: Rattus norvegicus; test: Effect of Beta Glucuronidase on recovery of 3H associated with compound from rat liver; format: ADME, organism-based; settings: in vivo
Rattus norvegicus [23] = species: Rattus norvegicus; test: Effect of Beta Glucuronidase on recovery of 3H associated with compound from rat plasma; format: ADME, organism-based
Rattus norvegicus [24] = species: Rattus norvegicus; test: Effect of Beta Glucuronidase on recovery of 3H associated with compound from rat uterus; format: ADME, organism-based; settings: in vivo
Rattus norvegicus [25] = species: Rattus norvegicus; test: Relative recovery of 3H associated with compound from rat Intestinal contents; format: ADME, organism-based; settings: in vivo
Rattus norvegicus [26] = species: Rattus norvegicus; test: Relative recovery of 3H associated with compound from rat liver; format: ADME, organism-based; settings: in vivo
Rattus norvegicus [27] = species: Rattus norvegicus; test: Relative recovery of 3H associated with compound from rat plasma; format: ADME, organism-based
Rattus norvegicus [28] = species: Rattus norvegicus; test: Relative recovery of 3H associated with compound from rat uterus; format: ADME, organism-based; settings: in vivo
[29] = target: T2, Estrogen receptor (Rattus norvegicus) (UniProt P06211+Q62986); test: Ratio of specific binding to non-specific binding at rat estrogen receptor; format: protein assay
Rattus norvegicus [30] = test: Distribution of radiolabeled compound in intestinal contents of rat 8 hr after ip administration of dose; fmol equivalents per 100 mg; format: ADME, organism-based; settings: in vivo
[31] = target: T2, Estrogen receptor (Rattus norvegicus); settings: Uterus, Cytosol
Description: Non specific binding to estrogen receptor in rat uterine cytosol using unlabeled ligand

[32] = target: T2, Estrogen receptor (Rattus norvegicus); settings: Uterus, Cytosol; remark: listed apart in the source
Estrogen receptor [33] = target: T1, Estrogen receptor
Description: In vitro displacement of 3 nM [3H]4-hydroxytamoxifen from estrogen receptor of rat uterine cystol

[34] = target: T2, Estrogen receptor (Rattus norvegicus)
Description: Non specific binding to estrogen receptor in rat uterine cytosol(+/-SD)

[35] = target: T2, Estrogen receptor (Rattus norvegicus); remark: listed apart in the source
Description: Specific binding to estrogen receptor in rat uterine cytosol(+/-SD)

[36] = target: T2, Estrogen receptor (Rattus norvegicus); remark: listed apart in the source

Compound: Oc1ccc(C(=Cc2ccc(Br)cc2)c2ccc(O)cc2)cc1
- EC50 (Estrogen receptor [1]): 10.4 nM

Compound: Oc1ccc(C(=Cc2ccc(F)cc2)c2ccc(O)cc2)cc1
- Distribution (Rattus norvegicus [2]): 2360 fM/mg
- Distribution (Rattus norvegicus [3]): 3269 fM/mg
- Distribution (Rattus norvegicus [4]): 834 fM/mg
- Distribution (Rattus norvegicus [5]): 373 fM/mg
- Distribution (Rattus norvegicus [6]): 251 fM/mg
- Distribution (Rattus norvegicus [7]): 318 fM/mg
- Distribution (Rattus norvegicus [8]): 97 fM/mg
- Distribution (Rattus norvegicus [9]): 61 fM/mg
- Distribution (Rattus norvegicus [10]): 198 fM/mg
- Distribution (Rattus norvegicus [11]): 144 fM/mg
- Distribution (Rattus norvegicus [12]): 56 fM/mg
- Distribution (Rattus norvegicus [13]): 46 fM/mg
- Distribution (Rattus norvegicus [14]): 496 fM/mg
- Distribution (Rattus norvegicus [15]): 302 fM/mg
- Distribution (Rattus norvegicus [16]): 429 fM/mg
- Distribution (Rattus norvegicus [17]): 196 fM/mg
- Distribution (Rattus norvegicus [18]): 87 fM/mg
- Distribution (Rattus norvegicus [19]): 122 fM/mg
- Distribution (Rattus norvegicus [20]): 880 fM/mg
- Recovery (Rattus norvegicus [21]): 95.4%
- Recovery (Rattus norvegicus [22]): 75.9%
- Recovery (Rattus norvegicus [23]): 92.1%
- Recovery (Rattus norvegicus [24]): 95.9%
- Recovery (Rattus norvegicus [25]): 5.3%
- Recovery (Rattus norvegicus [26]): 15.7%
- Recovery (Rattus norvegicus [27]): 28.7%
- Recovery (Rattus norvegicus [28]): 84.5%
- EC50 (Estrogen receptor [1]): 2.9 nM
- S/N [29]: 3.2
- Distribution (Rattus norvegicus [30]): 665 fM/mg
- Binding [31]: 305 fM uterus-1
- Binding [32]: 971 fM uterus-1
- EC50 (Estrogen receptor [33]): 170 nM

Compound: CCC(=C(c1ccc(O)cc1)c1ccc(OCCN(C)C)cc1)c1ccccc1
- Binding [34]: 475 fM uterus-1
- Binding [35]: 1080 fM uterus-1
- EC50 (Estrogen receptor [33]): 6 nM
- S/N [36]: 2.3

Compound: Oc1ccc(C(=C(Cl)c2ccccc2)c2ccc(O)cc2)cc1
- EC50 (Estrogen receptor [1]): 4.5 nM

Compound: Oc1ccc(C(=Cc2ccccc2)c2ccc(O)cc2)cc1
- EC50 (Estrogen receptor [1]): 3.2 nM

Compound: Oc1ccc(C(=Cc2ccc(I)cc2)c2ccc(O)cc2)cc1
- EC50 (Estrogen receptor [1]): 3.3 nM
- EC50 (Estrogen receptor [33]): 9.5 nM
